For test [1], the system named is MCF7. In words: Cytotoxicity against human MCF7 cells by SRB assay. The class given is functional. Particulars: for CC50: read-out: LC50 (the source's name). In general terms: The SRB assay estimates cell density from bound dye.
For test [2], the system named is HeLa. As to the kind of experiment: Cytotoxicity against human HeLa cells by SRB assay. The class given is functional.
Test [3] concerns Escherichia coli. As to the kind of experiment: Induction of Escherichia coli DNA cleavage at 100 ug after 2 hrs by agarose gel electrophoresis.

Activity calls are given as the source filed them. No cut-off for these calls is given here.

The GI50 is the concentration giving 50% growth inhibition. Low values mean greater sensitivity of the cells, high ones lower sensitivity of the cells. Usually TGI stands for the concentration at which net growth stops. Low values mean greater sensitivity of the cells, high ones lower sensitivity of the cells. Regarding `CC(=O)NC1=NN(C(C)=O)C(c2cc3ccc(C)cc3n3nnnc23)S1` (centres undefined), in test [1], halving of growth (GI50) required 98.9 µM, the TGI is more than 100 µM and the CC50 is more than 100 µM. In test [2], the GI50 amounted to 83.3 µM, the LC50 (concentration killing 50% of cells) is more than 100 µM and the TGI was more than 100 µM.

As for `CC(=O)NC1=NN(C(C)=O)C(c2cc3ccccc3n3nnnc23)S1` (centres undefined), in test [1], the GI50 is more than 100 µM, the TGI was more than 100 µM and the CC50 is more than 100 µM. In test [2], this compound returned a GI50 of more than 100 µM, an LC50 (concentration killing 50% of cells) of more than 100 µM and a TGI of more than 100 µM. In addition, the result in test [3] was Active.

For the compound `COc1ccc2cc(C3SC(NC(C)=O)=NN3C(C)=O)c3nnnn3c2c1` (centres undefined), in test [1], the concentration for 50% growth inhibition (GI50) is more than 100 µM, the TGI was more than 100 µM and the CC50 is more than 100 µM. Further, in test [2], the GI50 was more than 100 µM, the LC50 (concentration killing 50% of cells) was more than 100 µM and the concentration for total growth inhibition (TGI) is more than 100 µM. Further, the result in test [3] was Active.

With `CC(=O)NC1=NN(C(C)=O)C(c2cc3cc(Br)ccc3n3nnnc23)S1` (centres undefined), in test [1], the 50% growth inhibitory concentration (GI50) was more than 100 µM, the TGI was more than 100 µM and the CC50 is more than 100 µM. In test [2], the GI50 was less than 0.1 µM, the LC50 (concentration killing 50% of cells) is more than 100 µM and the TGI was more than 100 µM. Also, the outcome in test [3] was Active.

With `CC(=O)NC1=NN(C(C)=O)C(c2cc3cc(Cl)ccc3n3nnnc23)S1` (centres undefined), in test [1], the GI50 was more than 100 µM, the TGI was more than 100 µM and the CC50 is more than 100 µM. In test [2], this compound registered a GI50 of less than 0.1 µM, an LC50 (concentration killing 50% of cells) of more than 100 µM and a TGI of more than 100 µM. Moreover, the outcome in test [3] was Active.

For `CC(=O)NC1=NN(C(C)=O)C(c2cc3cccc(C)c3n3nnnc23)S1` (centres undefined), in test [1], the 50% growth inhibitory concentration (GI50) turned out to be 95.3 µM, the TGI was more than 100 µM and the CC50 is more than 100 µM. Further, in test [2], the GI50 amounted to 85.1 µM, the LC50 (concentration killing 50% of cells) is more than 100 µM and the TGI is more than 100 µM. The result in test [3] was Active.

With `COc1cccc2c1C(=O)c1c(O)c3c(c(O)c1C2=O)C[C@@](O)(C(=O)CO)C[C@@H]3O[C@H]1C[C@H](N)[C@H](O)[C@H](C)O1` [DOXORUBICIN], in test [1], the GI50 is less than 0.1 µM, the TGI was more than 0.1 µM and the CC50 is more than 100 µM. In test [2], this compound returned a GI50 of less than 0.1 µM and a TGI of more than 0.1 µM.

On to `COc1ccc2c(c1)cc(C1SC(NC(C)=O)=NN1C(C)=O)c1nnnn12` (centres undefined), for which, in test [1], the GI50 was more than 100 µM, the total growth inhibition concentration (TGI) is more than 100 µM and the CC50 was more than 100 µM. In test [2], the concentration for 50% growth inhibition (GI50) is more than 100 µM, the LC50 (concentration killing 50% of cells) was more than 100 µM and the TGI is more than 100 µM. The result in test [3] was Active.

Turning to `COc1cc2cc(C3SC(NC(C)=O)=NN3C(C)=O)c3nnnn3c2cc1OC` (centres undefined), in test [1], the GI50 was more than 100 µM, the total growth inhibition concentration (TGI) was more than 100 µM and the CC50 was more than 100 µM. Also, in test [2], the GI50 is more than 100 µM, the LC50 (concentration killing 50% of cells) is more than 100 µM and the TGI was more than 100 µM. Besides, the outcome in test [3] was Active.

On to `COc1cccc2cc(C3SC(NC(C)=O)=NN3C(C)=O)c3nnnn3c12` (centres undefined), for which, in test [1], the GI50 is more than 100 µM, the concentration for total growth inhibition (TGI) is more than 100 µM and the CC50 was more than 100 µM. In test [2], the GI50 is more than 100 µM, the LC50 (concentration killing 50% of cells) is more than 100 µM and the TGI is more than 100 µM. Moreover, the result in test [3] was Active.

Take `CC(=O)NC1=NN(C(C)=O)C(c2cc3cc(C)ccc3n3nnnc23)S1` (centres undefined): in test [1], the GI50 is more than 100 µM, the TGI is more than 100 µM and the CC50 is more than 100 µM. In test [2], this compound came in with a GI50 of 81.3 µM, an LC50 (concentration killing 50% of cells) of more than 100 µM and a TGI of more than 100 µM. The outcome in test [3] was Active.
